Measured values taken from patent US8658649B2, “Kinase inhibitor” (Sanofi, priority 2006, dated 2014).
Where “and” joins values, the source holds several entries; their conditions need not be identical. Identical values can stand only once.

Legend:
[1] = test system: hematological malignant cell lines; assay: Viability assay (MTS), panel of hematological malignant cell lines; assay type: cell-based
Method: (§1) This method is to determine the viability of a liquid tumor cell line following treatment with a test compound. Tumor cells are maintained in suspension at log phase growth. On the day of use, cells are resuspended to a density of 0.05 to 0.1 million/ml and cells are incubated in 96 well plate with the test compounds for 96 hours. Viability of cells was measured by incubating cells with Promega's MTS reagent. The viability of the cell is proportional to the change in absorbance at 490 nm. By comparing the absorbance between control and compound-treated cells, the impact of the test compounds on the cell viability is determined as a percent of the control cell viability.
(§2) Harvest cells in complete RPMI from log-phase cultures at densities of approximately 0.3-0.7 million/ml. Count cells and adjust to 0.1 million/ml in phenol red free cRPMI (For fast growing cells with doubling time of equal or less than 24 hours, e.g. K562, use 0.05 million/ml instead to avoid over-growing).
(§3) Transfer triplicates of 100 μl of cells to the wells of 96-well clear plates for a total of 10000 cells/well. Note that each well already contains 10 μl of 10× concentrated test compound prepared as above.
(§4) Incubate cells for 72-96 hours at 37° C. in a tissue culture incubator containing 5% CO2.
1. […]
4. Incubate at 370 C until the absorbance at 490 nm for the control cells is >1.5. […]

Syk = target: T1, Syk (Homo sapiens, UniProt P43405); assay: Syk substrate phosphorylation, Streptavidin FlashPlate; assay type: biochemical; conditions: 7.77 nM Flag-tagged Syk, PGT-Biotin substrate, 33P-ATP
T1 construct: Flag; made in house
Excerpt: • Assay Name: Spleen Tyrosine (Y) Kinase • Short Name: Syk • Assay Format: Substrate Phosphorylation • Detection Format: Streptavidin FlashPlate • Modulation: Inhibition
Streptavidin FlashPlate Plus microplates from PerkinElmer Life Sciences™ are designed for in-plate radiometric assays. The interior of each well is permanently coated with a thin layer of polystyrene-based scintillant followed by covalent binding of Streptavidin. These plates are suitable for a wide variety of assay applications which utilize biotinylated capture molecules. Poly (Glu,Tyr) 4:1 (PGT) is a random copolymer that can act as a substrate for tyrosine-specific protein kinases. The assay measures the phosphorylation of PGT-Biotin substrate by Syk. The enzyme transfers the [γ^33P]-phosphate from [γ^33P]-ATP to the polymeric substrate. The assay was run in solution in a non-binding 384-well plate. After stopping the reaction using phosphoric acid, the reaction mixture was transferred to a 384-well Streptavidin Flashplate. The biotinylated substrate was captured onto the plate and other reagents including hot ATP were washed away. Each well was then counted for radioactivity.
The enzyme reaction was run in a 384-well non-binding plate. […] Radioactivity was counted on a Top Count™ scintillation counter. […]

ML-2 = assay: Viability assay of liquid tumor cell lines (MTS); assay type: cell-based; conditions: ML-2 (AML), N = 4
Method: as §1, §2, §3, §4
(§5) 1. Thaw the Promega's MTS reagent and add 20 ul to each well with a repeat pipetor.
(§6) 4. Incubate at 370 C until the absorbance at 490 nm for the control cells is >1.5.
(§7) 5. Calculate the averaged compound-treated cell data as a percent of the averaged control cell data as follows: (Compound-treated value/control value)*100=% of control value Results: […]

HL-60 = assay: Viability assay of liquid tumor cell lines (MTS); assay type: cell-based; conditions: HL-60 (AML), N = 4
Method: as §1, §2, §3, §4, §5, §6, §7

RPMI8226 = assay: Viability assay of liquid tumor cell lines (MTS); assay type: cell-based; conditions: RPMI8226 (MM), N = 4
Method: as §1, §2, §3, §4, §5, §6, §7

JVM-2 = assay: Viability assay of liquid tumor cell lines (MTS); assay type: cell-based; conditions: JVM-2 (B-CLL), N = 4, listed as A003397769, 10 µM
Method: as §1, §2, §3, §4, §5, §6, §7

K562 = assay: Viability assay of liquid tumor cell lines (MTS); assay type: cell-based; conditions: K562 (CML), N = 4
Method: as §1, §2, §3, §4, §5, §6, §7

IC50 (Syk): 0.0017 µM
IC50 (ML-2; Homo sapiens, MTS assay): > 10 µM
IC50 (RPMI8226; Homo sapiens, RPMI-8226, MTS assay): > 10 µM
Structure (SMILES): CCc1c(-c2ccc(C(C)(C)O)cc2)[nH]c2nccnc12 [compound of Formula I, 2-[4-(7-Ethyl-5H-pyrrolo[2,3-b]pyrazin-6-yl)-phenyl]-propan-2-ol]
anti-proliferation activity in the two MCL cell lines ([1]; Jeko-1 and Granta-519): consistently active
hematological malignant cell lines against which the compound is inhibitory ([1]; MTS assay, panel of Table 4): 6 out of 15
% Inhibition at max. conc. (10 uM) (ML-2; 10 uM): 28%
% Inhibition at max. conc. (10 uM) (HL-60): 35%
% Inhibition at max. conc. (10 uM) (RPMI8226; 10 uM): 36%
% Inhibition at max. conc. (10 uM) (JVM-2): 60% and 59%
% Inhibition at max. conc. (10 uM) (K562): 21%
